Results: patent US20250074891A1 (Anaxis Pharma Pty Ltd., priority 2021, published 2025)

What was measured:
Conditions in all cases: Table 35
RIP1 = RIP1 (Homo sapiens (Human), UniProt Q13546); assay: KINOMEscan binding assay, RIP1
RIP3 = RIP3 (Homo sapiens (Human), UniProt Q9Y572); assay: KINOMEscan binding assay, RIP3
Experimental: (§1) Kinase assays. For most assays, kinase-tagged T7 phage strains were grown in parallel in 24-well blocks in an E. coli host derived from the BL21 strain. E. coli were grown to log-phase and infected with T7 phage from a frozen stock (multiplicity of infection=0.4) and incubated with shaking at 32° C. until lysis (90-150 minutes).
(§2) The Hill Slope was set to −1.

MLKL (full length) = MLKL (full length) (Homo sapiens (Human), UniProt Q8NB16); assay: KINOMEscan binding assay, MLKL (full length)
MLKL (full length), sequence (Q8NB16 whole entry): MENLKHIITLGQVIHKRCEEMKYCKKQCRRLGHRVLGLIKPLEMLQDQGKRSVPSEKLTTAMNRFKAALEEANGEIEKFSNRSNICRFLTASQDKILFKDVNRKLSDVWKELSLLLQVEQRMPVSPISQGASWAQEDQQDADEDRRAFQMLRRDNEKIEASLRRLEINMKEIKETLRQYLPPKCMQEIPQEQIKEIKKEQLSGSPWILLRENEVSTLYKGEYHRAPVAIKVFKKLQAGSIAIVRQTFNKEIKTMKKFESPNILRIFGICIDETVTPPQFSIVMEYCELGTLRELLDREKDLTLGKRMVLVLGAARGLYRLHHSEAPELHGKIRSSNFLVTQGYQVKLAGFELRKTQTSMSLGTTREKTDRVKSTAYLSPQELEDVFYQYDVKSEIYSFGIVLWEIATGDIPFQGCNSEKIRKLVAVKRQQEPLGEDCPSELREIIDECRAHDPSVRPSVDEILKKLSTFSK
Experimental: as §1, §2

RIP3, sequence (Q9Y572 whole entry): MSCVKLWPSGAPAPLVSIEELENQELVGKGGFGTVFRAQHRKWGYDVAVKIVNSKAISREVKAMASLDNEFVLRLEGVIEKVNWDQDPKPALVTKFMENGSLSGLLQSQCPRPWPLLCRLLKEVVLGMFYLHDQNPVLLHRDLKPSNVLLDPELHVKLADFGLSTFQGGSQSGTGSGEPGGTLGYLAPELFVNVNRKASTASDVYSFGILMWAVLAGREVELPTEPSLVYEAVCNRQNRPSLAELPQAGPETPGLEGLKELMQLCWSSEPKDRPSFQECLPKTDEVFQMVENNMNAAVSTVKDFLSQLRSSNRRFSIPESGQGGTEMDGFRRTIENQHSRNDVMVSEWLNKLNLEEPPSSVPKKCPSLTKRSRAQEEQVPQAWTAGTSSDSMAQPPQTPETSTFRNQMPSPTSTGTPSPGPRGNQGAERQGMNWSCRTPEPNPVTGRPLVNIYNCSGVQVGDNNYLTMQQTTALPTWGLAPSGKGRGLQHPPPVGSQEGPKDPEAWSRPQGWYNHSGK
RIP1, sequence (Q13546 whole entry): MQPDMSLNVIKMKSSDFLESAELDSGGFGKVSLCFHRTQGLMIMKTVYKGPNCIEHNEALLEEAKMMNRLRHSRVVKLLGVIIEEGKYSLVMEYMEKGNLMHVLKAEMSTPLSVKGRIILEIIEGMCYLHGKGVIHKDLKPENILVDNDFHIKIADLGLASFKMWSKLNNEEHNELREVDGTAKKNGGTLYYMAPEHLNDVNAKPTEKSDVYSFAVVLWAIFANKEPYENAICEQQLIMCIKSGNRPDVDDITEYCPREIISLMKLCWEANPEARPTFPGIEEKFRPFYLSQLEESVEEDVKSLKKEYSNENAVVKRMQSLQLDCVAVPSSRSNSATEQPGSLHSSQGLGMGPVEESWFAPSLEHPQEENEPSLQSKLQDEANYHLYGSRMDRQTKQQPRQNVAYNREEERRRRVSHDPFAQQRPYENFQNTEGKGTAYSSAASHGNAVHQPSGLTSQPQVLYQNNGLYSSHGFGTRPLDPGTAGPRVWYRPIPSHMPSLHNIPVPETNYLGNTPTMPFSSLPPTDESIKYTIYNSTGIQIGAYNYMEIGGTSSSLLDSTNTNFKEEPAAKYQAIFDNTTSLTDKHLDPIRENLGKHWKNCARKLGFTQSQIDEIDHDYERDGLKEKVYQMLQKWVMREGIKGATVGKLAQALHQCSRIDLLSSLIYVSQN

Kd (RIP1) [µM] | Kd (RIP3) [µM] | Kd (MLKL (full length)) [nM] | Structure (SMILES)
> 30 | > 30 | < 10 | NC(=O)c1c(-c2ccc(NS(=O)(=O)CCC(F)(F)F)c(OCc3ccc(F)cc3)c2)n[nH]c1Nc1cnccn1 [Compound 184, 3-(3-((4-fluorobenzyl)oxy)-4-((3,3,3-trifluoropropyl)sulfonamido)phenyl)-5-(pyrazin-2-ylamino)-1H-pyrazole-4-carboxamide]
> 30 | > 30 | < 10 | NC(=O)c1c(-c2ccc(NS(=O)(=O)CC(F)(F)F)c(OCc3ccc(Cl)cc3)c2)n[nH]c1Nc1cnc(C(F)(F)F)cn1 [Compound 234, 3-{3-[(4-chlorophenyl)methoxy]-4-(2,2,2-trifluoroethanesulfonamido)phenyl}-5-{[5-(trifluoromethyl)pyrazin-2-yl]amino}-1H-pyrazole-4-carboxamide]
> 30 | > 30 | < 10 | NC(=O)c1c(-c2ccc(NS(=O)(=O)CC(F)(F)F)c(OC(c3ccc(F)cc3)C3CCC3)c2)n[nH]c1Nc1cnccn1 (stereo not drawn) [Compound 266, 3-{3-[cyclobutyl(4-fluorophenyl)methoxy]-4-(2,2,2-trifluoroethanesulfonamido)phenyl}-5-[(pyrazin-2-yl)amino]-1H-pyrazole-4-carboxamide]
> 30 | > 30 | < 10 | Cc1nc(Nc2[nH]nc(-c3ccc(NS(=O)(=O)C(F)F)c(O[C@@H](C)c4ccc(F)cc4)c3)c2C(N)=O)sc1C [Compound 284, (S)-3-(4-((difluoromethyl)sulfonamido)-3-(1-(4-fluorophenyl)ethoxy)phenyl)-5-((4,5-dimethylthiazol-2-yl)amino)-1H-pyrazole-4-carboxamide]
> 30 | > 30 | < 10 | C[C@H](Oc1cc(-c2n[nH]c(Nc3ccccn3)c2C(N)=O)ccc1NS(=O)(=O)C(F)F)c1ccc(F)cc1 [Compound 260]
> 30 | > 30 | < 10 | CCS(=O)(=O)Nc1ccc(-c2n[nH]c(Nc3cnccn3)c2C(N)=O)cc1OCC1CCCC1 [Compound 40, 3-(3-(cyclopentyl-methoxy)-4-(ethylsulfonamido)phenyl)-5-(pyrazin-2-ylamino)-1H-pyrazole-4-carboxamide]

Further lines, the molecule ahead of its results:

Structure (SMILES) | Kd (RIP1) [µM] | Kd (RIP3) [µM] | Kd (MLKL (full length)) [nM]
NC(=O)c1c(-c2ccc(NS(=O)(=O)C(F)F)c(OCc3ccc(F)cc3)c2)n[nH]c1Nc1cccc(C(F)(F)F)n1 [Compound 217] | > 30 | > 30 | < 10
CCS(=O)(=O)Nc1ccc(-c2n[nH]c(Nc3cncc(OC)n3)c2C(N)=O)cc1OCc1ccc(F)cc1 [Compound 15, 3-(4-(ethylsulfonamido)-3-((4-fluorobenzyl)oxy)phenyl) 5-((6-methoxypyrazin-2-yl)amino)-1H-pyrazole-4-carboxamide] | > 30 | > 30 | < 10
CCS(=O)(=O)Nc1ccc(-c2n[nH]c(Nc3cnccn3)c2C(N)=O)cc1OCc1cccnc1 [Compound 32, 3-(4-(ethylsulfonamido)-3-(226yridine-3-ylmethoxy)phenyl)-5-(pyrazin-2-ylamino)-1H-pyrazole-4-carboxamide] | > 30 | > 30 | < 10
NC(=O)c1c(-c2ccc(NS(=O)(=O)CC(F)(F)F)c(OCc3ccc(F)c(F)c3)c2)n[nH]c1Nc1ccccn1 [Compound 160, 3-(3-((3,4-difluorobenzyl)oxy)-4-((2,2,2-trifluoroethyl)sulfonamido)phenyl)-5-(pyridine-2-ylamino)-1H-pyrazole-4-carboxamide] | > 30 | > 30 | < 10
CC(Oc1cc(-c2n[nH]c(Nc3cnccn3)c2C(N)=O)ccc1NS(=O)(=O)C(F)F)c1ncco1 (racemic) [Compound 293, 3-(4-((difluoro-methyl)sulfon-amido)-3-(1-(oxazol-2-yl)ethoxy)phenyl)-5-(pyrazin-2-ylamino)-1H-pyrazole-4-carboxamide] | > 30 | > 30 | < 10
